According to ChEMBL document CHEMBL1155431, “Antimicrobial activity of long-chain (E)-3-alken-2-ones” (2010):
Values after ≈ are worked out from the molar mass of the structure shown. Active and inactive are the calls of the source. No cut-off for these calls is given here.

Assays:
Malassezia = experiment: Antimicrobial activity against Pityrosporum ovale ATCC 14521 after 3 days by two fold serial broth dilution method; type: functional; conditions: ATCC 14521, 72 h
Klebsiella aerogenes = experiment: Antimicrobial activity against Enterobacter aerogenes ATCC 13048 after 2 days by two fold serial broth dilution method; type: functional, organism-based
Escherichia coli = experiment: Antimicrobial activity against Escherichia coli ATCC 9637 after 2 days by two fold serial broth dilution method; type: functional, organism-based
Saccharomyces cerevisiae = experiment: Antimicrobial activity against Saccharomyces cerevisiae ATCC 7754 after 2 days by two fold serial broth dilution method; type: functional, organism-based
Pseudomonas aeruginosa = experiment: Antimicrobial activity against Pseudomonas aeruginosa ATCC 10145 after 2 days by two fold serial broth dilution method; type: functional, organism-based

Row | SMILES | MIC (Malassezia) | further results
1 | CCCCCCCCCCCC/C=C/C(C)=O | > 800 µg/mL | 
2 | CCCCCCCCC/C=C/C(C)=O | 100 µg/mL (≈ 509 µM) | Activity (Klebsiella aerogenes): inactive; Activity (Escherichia coli): inactive; Activity (Saccharomyces cerevisiae): inactive; Activity (Pseudomonas aeruginosa): inactive
3 | CCCCCCCCCCCCC/C=C/C(C)=O | > 800 µg/mL | 
4 | CCCCCCCC/C=C/C(C)=O | 100 µg/mL (≈ 549 µM) | 
5 | CCCCCCCCCCC/C=C/C(C)=O | 400 µg/mL (≈ 1780 µM) | 
6 | CCCCCCC/C=C/C(C)=O | 100 µg/mL (≈ 594 µM) | 
7 | CCCCCCCCCC/C=C/C(C)=O | 100 µg/mL (≈ 475 µM) | 
